Data from ChEMBL document CHEMBL4368940, “Development of a novel NURR1/NOT agonist from hit to lead and candidate for the potential treatment of Parkinson's disease” (Bioorg Med Chem Lett, 2019).

Legend:
[1] = molecular target: Nuclear receptor subfamily 4 group A member 2 (Homo sapiens, UniProt P43354); test: Agonist activity at full-length Gal4-fused NOT (unknown origin) expressed in CHO cells by luciferase reporter gene assay; assay type: cell-based
[2] = Drug level in mouse liver microsomes treated with N-phenyl-6-(pyridin-2-yl)imidazo[1,2-a]pyridine-2-carboxamide assessed as metabolite formation; assay type: ADME, Microsome
[3] = Clearance in human hepatocytes assessed per million cells; assay type: ADME, cell-based, Hepatocyte
[4] = molecular target: Nuclear receptor subfamily 4 group A member 2 (Mus musculus, UniProt Q06219); test: (§1) Agonist activity at Nurr1 in mouse N2A cells harboring NBRE by luciferase reporter gene assay; assay type: cell-based
[5] = molecular target: Nuclear receptor subfamily 4 group A member 2 (Mus musculus) (UniProt Q06219); test: as §1; assay type: cell-based
hERG = hERG (Homo sapiens, UniProt Q12809); test: Inhibition of human ERG at 10 uM
Cytochrome P450 2D6 = Cytochrome P450 2D6 (Homo sapiens, UniProt P10635); test: Inhibition of CYP2D6 (unknown origin); assay type: ADME
Cytochrome P450 3A4 = Cytochrome P450 3A4 (Homo sapiens, UniProt P08684); test: Inhibition of CYP3A4 (unknown origin); assay type: ADME
[6] = Drug metabolism in mouse liver microsomes assessed as amide hydrolysis by measuring 6-(pyridin-2-yl)imidazo[1,2-a]pyridine-2-carboxylic acid formation; assay type: ADME, Microsome
[7] = Genotoxicity in Salmonella typhimurium by Ames test; assay type: toxicity; conditions: salmonella enterica subsp. enterica serovar typhimurium
[8] = Drug metabolism in mouse liver microsomes; assay type: ADME, Microsome; conditions: read-out: Drug metabolism
[9] = Stability in human plasma; assay type: ADME, cell-free
[10] = Drug metabolism in human liver microsomes; assay type: ADME, Microsome; conditions: read-out: Drug metabolism
[11] = Stability in mouse plasma; assay type: ADME, cell-free
[12] = Drug metabolism in mouse liver microsomes assessed as amide hydrolysis by measuring aniline formation; assay type: ADME, Microsome
Cytochrome P450 2C9 = Cytochrome P450 2C9 (Homo sapiens, UniProt P11712); test: Inhibition of CYP2C9 (unknown origin); assay type: ADME
[13] = Solubility of the compound by HPLC analysis; assay type: physicochemical
[14] = Lipophilicity, log D of the compound; assay type: physicochemical; conditions: octanol/water
CYP450 = CYP450 (Homo sapiens, UniProt P04798+P05177+P05181+P08684+P10632+P10635+P11509+P11712+P13584+P20813+P20815+P20853+P24462+P24903+P33260+P33261+P51589+P78329+P98187+Q02928+Q08477+Q16678+Q16696+Q5TCH4+Q6VVX0+Q7Z449+Q8TAV3+Q96SQ9+Q9HB55); test: Induction of CYP450 (unknown origin); assay type: ADME, protein assay
[15] = molecular target: Nuclear receptor subfamily 4 group A member 2 (Rattus norvegicus) (UniProt Q07917); test: Agonist activity at Nurr1 in rat mesencephalic primary neurons assessed as increase in tyrosine hydroxylase expression at 3 uM
[16] = molecular target: Voltage-gated inwardly rectifying potassium channel KCNH2 (Homo sapiens, UniProt Q12809); test: Activation of human ERG
[17] = Apparent permeability in human Caco2 cells; assay type: ADME, cell-based; conditions: caco-2
[18] = Dissociation constant, pKa of the compound; assay type: physicochemical

Sequence of Nuclear receptor subfamily 4 group A member 2 (Mus musculus, UniProt Q06219) (Q06219 whole entry): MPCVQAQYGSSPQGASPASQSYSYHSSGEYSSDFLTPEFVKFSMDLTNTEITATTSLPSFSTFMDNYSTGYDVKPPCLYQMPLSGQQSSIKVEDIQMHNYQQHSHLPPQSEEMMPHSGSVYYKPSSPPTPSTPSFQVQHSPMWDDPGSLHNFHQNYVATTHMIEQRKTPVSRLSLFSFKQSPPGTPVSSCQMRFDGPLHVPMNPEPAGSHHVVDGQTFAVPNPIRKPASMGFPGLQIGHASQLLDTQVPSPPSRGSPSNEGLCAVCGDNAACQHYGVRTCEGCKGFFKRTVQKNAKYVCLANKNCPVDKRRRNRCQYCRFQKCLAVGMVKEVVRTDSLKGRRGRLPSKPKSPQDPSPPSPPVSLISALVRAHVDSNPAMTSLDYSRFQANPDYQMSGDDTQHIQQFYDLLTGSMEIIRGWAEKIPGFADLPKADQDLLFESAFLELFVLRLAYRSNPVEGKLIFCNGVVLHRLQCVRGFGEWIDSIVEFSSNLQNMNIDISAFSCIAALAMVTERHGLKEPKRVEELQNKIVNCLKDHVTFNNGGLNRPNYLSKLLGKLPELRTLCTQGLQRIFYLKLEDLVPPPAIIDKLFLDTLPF
Sequence of Nuclear receptor subfamily 4 group A member 2 (Mus musculus) (Q06219 whole entry): as above
Sequence of Nuclear receptor subfamily 4 group A member 2 (Homo sapiens, UniProt P43354) (P43354 whole entry, the tested form may be a part): as the sequence (Q06219 whole entry) above, with S131T, S134G, D354E counted along it
Sequence of hERG (Q12809 whole entry): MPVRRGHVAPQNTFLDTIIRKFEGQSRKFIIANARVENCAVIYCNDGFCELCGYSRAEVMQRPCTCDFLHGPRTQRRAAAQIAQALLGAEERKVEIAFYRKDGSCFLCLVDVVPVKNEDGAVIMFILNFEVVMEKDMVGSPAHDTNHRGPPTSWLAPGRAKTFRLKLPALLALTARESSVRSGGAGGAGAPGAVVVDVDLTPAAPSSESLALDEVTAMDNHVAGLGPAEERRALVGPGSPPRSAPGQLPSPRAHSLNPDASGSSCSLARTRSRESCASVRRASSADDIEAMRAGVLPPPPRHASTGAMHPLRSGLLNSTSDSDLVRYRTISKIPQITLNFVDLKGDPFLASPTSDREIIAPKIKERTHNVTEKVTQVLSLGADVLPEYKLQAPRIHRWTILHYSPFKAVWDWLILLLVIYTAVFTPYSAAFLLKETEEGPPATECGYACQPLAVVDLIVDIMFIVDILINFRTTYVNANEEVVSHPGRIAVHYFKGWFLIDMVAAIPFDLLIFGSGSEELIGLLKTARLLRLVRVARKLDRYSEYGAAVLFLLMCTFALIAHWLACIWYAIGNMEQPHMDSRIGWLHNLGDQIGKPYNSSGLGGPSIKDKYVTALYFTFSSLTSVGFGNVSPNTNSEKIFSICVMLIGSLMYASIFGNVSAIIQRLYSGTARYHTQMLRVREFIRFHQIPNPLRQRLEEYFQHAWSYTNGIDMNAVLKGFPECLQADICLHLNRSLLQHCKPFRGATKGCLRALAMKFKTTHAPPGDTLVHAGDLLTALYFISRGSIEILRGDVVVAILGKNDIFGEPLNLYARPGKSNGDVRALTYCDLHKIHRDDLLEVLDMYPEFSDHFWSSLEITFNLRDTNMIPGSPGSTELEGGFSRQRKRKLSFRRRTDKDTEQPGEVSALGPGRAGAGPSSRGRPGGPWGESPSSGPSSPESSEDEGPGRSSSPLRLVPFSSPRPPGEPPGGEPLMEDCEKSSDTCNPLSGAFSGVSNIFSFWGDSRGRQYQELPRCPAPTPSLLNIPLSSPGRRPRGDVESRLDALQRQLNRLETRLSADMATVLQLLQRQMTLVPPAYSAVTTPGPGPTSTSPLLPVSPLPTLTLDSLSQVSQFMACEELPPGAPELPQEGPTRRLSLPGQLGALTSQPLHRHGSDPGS
Sequence of Cytochrome P450 2C9 (P11712 whole entry): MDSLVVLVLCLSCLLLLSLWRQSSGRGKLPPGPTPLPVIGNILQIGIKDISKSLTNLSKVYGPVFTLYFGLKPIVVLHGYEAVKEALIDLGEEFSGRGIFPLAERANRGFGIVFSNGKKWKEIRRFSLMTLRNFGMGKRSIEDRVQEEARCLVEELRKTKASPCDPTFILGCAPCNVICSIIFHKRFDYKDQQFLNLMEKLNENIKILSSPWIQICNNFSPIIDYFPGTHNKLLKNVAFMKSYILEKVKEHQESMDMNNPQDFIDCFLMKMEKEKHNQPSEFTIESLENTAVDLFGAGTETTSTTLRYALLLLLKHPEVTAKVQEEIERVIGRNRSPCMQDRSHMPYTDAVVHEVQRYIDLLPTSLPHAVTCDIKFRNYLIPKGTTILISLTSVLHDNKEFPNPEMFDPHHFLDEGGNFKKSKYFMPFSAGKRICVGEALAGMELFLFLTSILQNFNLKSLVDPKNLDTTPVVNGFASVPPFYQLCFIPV
Sequence of Nuclear receptor subfamily 4 group A member 2 (Rattus norvegicus) (Q07917 whole entry): as the sequence (Q06219 whole entry) above, with S134G, P182R counted along it
Sequence of Cytochrome P450 2D6 (P10635 whole entry): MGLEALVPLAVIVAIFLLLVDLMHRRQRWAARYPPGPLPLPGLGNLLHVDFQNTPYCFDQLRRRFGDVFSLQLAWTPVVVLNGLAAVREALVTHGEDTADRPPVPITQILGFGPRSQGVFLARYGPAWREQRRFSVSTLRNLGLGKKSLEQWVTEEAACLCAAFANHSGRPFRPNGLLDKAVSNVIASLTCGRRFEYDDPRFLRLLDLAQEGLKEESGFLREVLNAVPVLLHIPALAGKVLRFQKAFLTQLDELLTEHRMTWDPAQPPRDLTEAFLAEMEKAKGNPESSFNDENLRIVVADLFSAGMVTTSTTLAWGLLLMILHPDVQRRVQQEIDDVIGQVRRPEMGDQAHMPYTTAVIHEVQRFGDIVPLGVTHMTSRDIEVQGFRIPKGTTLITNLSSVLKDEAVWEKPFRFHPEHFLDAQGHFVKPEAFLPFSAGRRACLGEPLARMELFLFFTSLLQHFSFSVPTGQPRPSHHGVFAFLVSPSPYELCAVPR
Sequence of Cytochrome P450 3A4 (P08684 whole entry): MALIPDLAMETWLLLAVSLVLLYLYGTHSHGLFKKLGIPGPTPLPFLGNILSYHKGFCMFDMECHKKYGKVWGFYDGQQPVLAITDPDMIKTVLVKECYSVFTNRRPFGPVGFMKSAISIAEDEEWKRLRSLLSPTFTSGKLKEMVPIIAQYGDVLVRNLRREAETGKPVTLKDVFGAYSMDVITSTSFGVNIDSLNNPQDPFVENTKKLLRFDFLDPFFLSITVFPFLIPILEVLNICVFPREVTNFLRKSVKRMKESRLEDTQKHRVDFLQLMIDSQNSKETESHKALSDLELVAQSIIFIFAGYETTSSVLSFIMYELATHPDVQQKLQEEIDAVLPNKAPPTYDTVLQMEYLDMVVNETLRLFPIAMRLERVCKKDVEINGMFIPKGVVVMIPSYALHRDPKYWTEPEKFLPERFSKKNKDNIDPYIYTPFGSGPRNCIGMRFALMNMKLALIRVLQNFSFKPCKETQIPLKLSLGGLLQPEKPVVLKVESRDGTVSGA
Sequence of Voltage-gated inwardly rectifying potassium channel KCNH2 (Q12809 whole entry): as the sequence (Q12809 whole entry) above

Row | EC50 ([1]; read-out: EC50) | Emax [5] | SMILES | other results
1 |  |  | CNC(=O)c1cccc(-c2ccc3nc(-c4ccc(Cl)cc4)cn3c2)c1 | Emax [1]: 226%
2 |  |  | O=C(O)c1cn2cc(-c3ccccn3)ccc2n1 | Drug metabolism [2]: Metabolite_Detected
3 | > 3 µM |  | Clc1ccc(-c2cn3cc(-c4cccc(CN5CCCC5)c4)ccc3n2)cc1 | 
4 | > 3 µM |  | CCN(CC)C(=O)c1cccc(-c2ccc3nc(-c4ccc(Cl)cc4)cn3c2)c1 | 
5 |  |  | OCc1cccc(-c2ccc3nc(-c4ccc(Cl)cc4)nn3n2)c1 | EC50 ([1]; cho): Not Active
6 | 0.075 µM |  | CC(O)c1cccc(-c2ccc3nc(-c4ccc(Cl)cc4)cn3c2)c1 (single isomer, unassigned; (+)) | CLH [3]: 0.45 mL/h
7 |  |  | Nc1ccccc1 [ANILINE] | Drug metabolism [2]: Metabolite_Detected
8 | > 1 µM | 85% | O=C(Nc1cnoc1)c1cn2cc(-c3ccccn3)ccc2n1 | EC50 [4]: 0.055 µM
9 |  |  | OCc1cccc(-c2ccc3cc(-c4ccc(Cl)cc4)cn3c2)c1 | EC50 ([1]; cho): Not Active
10 | > 1 µM |  | CCC(O)c1cccc(-c2ccc3nc(-c4ccc(Cl)cc4)cn3c2)c1 (stereo not given) | 
11 | 0.323 µM |  | OC1(c2cccc(-c3ccc4nc(-c5ccc(Cl)cc5)cn4c3)c2)COC1 | 
12 | > 1 µM |  | CC(C)(O)c1c(F)ccc(-c2ccc3nc(-c4ccc(Cl)cc4)cn3c2)c1F | inhibition at 10 µM (hERG): 70%
13 | > 3 µM |  | CCCCC(O)c1cccc(-c2ccc3nc(-c4ccc(Cl)cc4)cn3c2)c1 (stereo not given) | 
14 | > 1 µM | 87% | O=C(Nc1ccccn1)c1cn2cc(-c3ccccn3)ccc2n1 | EC50 [4]: 0.002 µM
15 | > 1 µM |  | OC1(c2cccc(-c3ccc4nc(-c5ccc(Cl)cc5)cn4c3)c2)CCOCC1 | 
16 | > 1 µM | 68% | O=C(Nc1ccccc1Cl)c1cn2cc(-c3ccccn3)ccc2n1 | EC50 [4]: 0.0265 µM
17 | > 3 µM |  | CCCCCCC(O)c1cccc(-c2ccc3nc(-c4ccc(Cl)cc4)cn3c2)c1 (stereo not given) | 
18 |  |  | NC(=O)c1cccc(-c2ccc3nc(-c4ccc(Cl)cc4)cn3c2)c1 | Emax [1]: 210%
19 | > 3 µM |  | OC(c1cccc(-c2ccc3nc(-c4ccc(Cl)cc4)cn3c2)c1)C1CCCC1 (stereo not given) | 
20 | > 3 µM |  | CCCCCC(O)c1cccc(-c2ccc3nc(-c4ccc(Cl)cc4)cn3c2)c1 (stereo not given) | 
21 |  |  | OCc1cccc(-c2cn3cc(-c4ccc(Cl)cc4)nc3cn2)c1 | EC50 ([1]; cho): Not Active
22 | 0.025 µM | 86% | O=C(Nc1cccc(F)n1)c1cn2cc(-c3ccccn3)ccc2n1 | EC50 [4]: 0.0006 µM; Emax [1]: 138%
23 | > 1 µM | 72% | O=C(Nc1nccs1)c1cn2cc(-c3ccccn3)ccc2n1 | 
24 | > 1 µM | 103% | O=C(Nc1cccc(F)c1)c1cn2cc(-c3ccccn3)ccc2n1 | EC50 [4]: 0.001 µM
25 | > 3 µM |  | CCC(C)C(O)c1cccc(-c2ccc3nc(-c4ccc(Cl)cc4)cn3c2)c1 (stereo not given) | 
26 | > 1 µM | 64% | O=C(Nc1cccc(F)c1F)c1cn2cc(-c3ccccn3)ccc2n1 | 

Row | EC50 ([1]; read-out: EC50) | Emax [5] | SMILES | other results
27 | > 3 µM |  | CNCc1cccc(-c2ccc3nc(-c4ccc(Cl)cc4)cn3c2)c1 | 
28 | > 1 µM | 70% | O=C(Nc1nncs1)c1cn2cc(-c3ccccn3)ccc2n1 | EC50 [4]: 0.0676 µM
29 | > 3 µM |  | N#Cc1cccc(-c2ccc3nc(-c4ccc(Cl)cc4)cn3c2)c1 | 
30 | > 1 µM |  | CC(O)(CO)c1cccc(-c2ccc3nc(-c4ccc(Cl)cc4)cn3c2)c1 (stereo not given) | 
31 | 0.099 µM |  | CC(O)c1cccc(-c2ccc3nc(-c4ccc(Cl)cc4)cn3c2)c1 (racemic) | 
32 | > 3 µM |  | OC(c1ccccc1)c1cccc(-c2ccc3nc(-c4ccc(Cl)cc4)cn3c2)c1 (stereo not given) | 
33 | 0.014 µM |  | OCc1cccc(-c2ccc3nc(-c4ccc(Cl)cc4)cn3c2)c1F | CLH [3]: 0.188 mL/h
34 | 0.14 µM | 204% | O=C(Nc1ccccc1)c1cn2cc(-c3ccccn3)ccc2n1 | IC50 (Cytochrome P450 2D6): > 10 µM; IC50 (Cytochrome P450 3A4): > 10 µM; Drug metabolism [6]: Metabolite_Detected; EC50 [4]: 0.001 µM; Emax [1]: 203%; Activity [7]: Non-Toxic; metabolised [8]: 21%; Stability [9]: Stable; metabolised [10]: 20%; Stability [11]: Unstable; Drug metabolism [12]: Metabolite_Detected; CLH [3]: 0.128 mL/h; IC50 (Cytochrome P450 2C9): 8.6 µM; solubility [13]: < 1 µM; logD [14]: 3.65; Emax (CYP450): < 20%; Activity [15]: 174 to 216%; EC50 [16]: > 10 µM; permeability [17]: Permeable; pKa [18]: 3.6
35 | 0.219 µM |  | CC(O)c1cccc(-c2ccc3nc(-c4ccc(Cl)cc4)cn3c2)c1 (single isomer, unassigned; (-)) | 
36 | 0.038 µM |  | OCc1c(F)ccc(-c2ccc3nc(-c4ccc(Cl)cc4)cn3c2)c1F | inhibition at 10 µM (hERG): 24%; CLH [3]: 0.1368 mL/h
37 | > 1 µM | 61% | O=C(Nc1cc[nH]n1)c1cn2cc(-c3ccccn3)ccc2n1 | 
38 | > 1 µM | 68% | O=C(Nc1cc(F)ccc1F)c1cn2cc(-c3ccccn3)ccc2n1 | EC50 [4]: 0.001 µM
39 | > 1 µM |  | OCc1cc(-c2ccc3nc(-c4ccc(Cl)cc4)cn3c2)ccc1F | 
40 | > 3 µM |  | Cc1cccc(-c2ccc3nc(-c4ccc(Cl)cc4)cn3c2)c1 | 
41 | > 1 µM | 62% | O=C(Nc1ccon1)c1cn2cc(-c3ccccn3)ccc2n1 | EC50 [4]: 0.02 µM
42 | > 1 µM | 85% | O=C(Nc1cc(F)cc(F)c1)c1cn2cc(-c3ccccn3)ccc2n1 | EC50 [4]: 0.0025 µM
43 | > 1 µM | 85% | O=C(Nc1ccsc1)c1cn2cc(-c3ccccn3)ccc2n1 | EC50 [4]: 0.001 µM
44 | > 1 µM |  | Cc1ccc(-c2ccc3nc(-c4ccc(Cl)cc4)cn3c2)cc1CO | 
45 | > 1 µM | 52% | N#Cc1ccccc1NC(=O)c1cn2cc(-c3ccccn3)ccc2n1 | EC50 [4]: 0.292 µM
46 | > 1 µM | 104% | O=C(Nc1ccccc1F)c1cn2cc(-c3ccccn3)ccc2n1 | EC50 [4]: 0.001 µM
47 | > 3 µM |  | Clc1ccc(-c2cn3cc(-c4cccc(CN5CCOCC5)c4)ccc3n2)cc1 | 
48 | > 3 µM |  | CN(C)Cc1cccc(-c2ccc3nc(-c4ccc(Cl)cc4)cn3c2)c1 | 
49 |  |  | OCc1cccc(-c2ccc3nc(-c4ccc(Cl)cc4)cn3n2)c1 | EC50 ([1]; cho): Not Active
50 | > 3 µM |  | COCc1cccc(-c2ccc3nc(-c4ccc(Cl)cc4)cn3c2)c1 | 
51 | > 1 µM |  | Cc1c(CO)cccc1-c1ccc2nc(-c3ccc(Cl)cc3)cn2c1 | 
